In PubChem BioAssay (NCI):
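Cultured in 96-well plates, cells were exposed to test compound for 48 hours across five concentrations. GI50 marks 50% less growth. TGI marks complete inhibition of growth.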

Columns and labels:
Assay in all cases: NCI tumour cell line growth inhibition, 48 h
SR leukemia = test system: SR leukemia
T-47D breast = test system: T-47D breast
HS 578T breast = test system: HS 578T breast
TK-10 renal = test system: TK-10 renal
MDA-MB-435 = test system: MDA-MB-435
BT-549 breast = test system: BT-549 breast
XF 498 CNS = test system: XF 498 CNS
DMS 273 small cell lung = test system: DMS 273 small cell lung
SN12K1 renal = test system: SN12K1 renal
KM20L2 colon = test system: KM20L2 colon
DMS 114 small cell lung = test system: DMS 114 small cell lung
P388/ADR leukemia = test system: P388/ADR leukemia
SNB-78 CNS = test system: SNB-78 CNS

| Structure (SMILES) | GI50 (SR leukemia) [µM] | TGI (SR leukemia) [µM] | GI50 (T-47D breast) [µM] | TGI (T-47D breast) [µM] | GI50 (HS 578T breast) [µM] | TGI (HS 578T breast) [µM] | GI50 (TK-10 renal) [µM] | TGI (TK-10 renal) [µM] | GI50 (MDA-MB-435) [µM] | TGI (MDA-MB-435) [µM] | GI50 (BT-549 breast) [µM] | TGI (BT-549 breast) [µM] | TGI (XF 498 CNS) [µM] | TGI (DMS 273 small cell lung) [µM] | TGI (SN12K1 renal) [µM] | TGI (KM20L2 colon) [µM] | TGI (DMS 114 small cell lung) [µM] | TGI (P388/ADR leukemia) [µM] | TGI (SNB-78 CNS) [µM] |
| --- | --- | --- | --- | --- | --- | --- | --- | --- | --- | --- | --- | --- | --- | --- | --- | --- | --- | --- | --- |
| O=C(c1ccccc1)c1nn(-c2ccccc2)c2nc3nc(-c4ccccc4)cc(=O)n3nc12 | 17.6 | 40.4 | 28.9 | 99.5 | 44.6 | > 100 | 40.3 | > 100 | 18.1 | 48.3 | 21.2 | 52.2 |  |  |  |  |  |  |  |
| CCCCS(=O)CC(CO)NC(=O)/C=C/c1c(C)[nH]c(=O)[nH]c1=O (stereo not drawn) |  |  |  |  |  |  |  |  |  |  |  |  | 14 | 52.7 | 24.1 | 56.8 | 25.1 | 59.2 |  |
| C[C@]12CCc3sc(-c4cccc(F)c4)nc3C1=CC[C@@H]1[C@@H]2CC[C@]2(C)C(=O)CC[C@@H]12 | 2.62 | 10.5 | 2 | 5.24 | 3.86 | > 100 | 2.77 | 8.29 | 2.97 | > 100 | 2.2 | 8.06 |  |  |  |  |  |  |  |
| O=C1CCCN1CCCN=c1cc2n(-c3ccc(Cl)cc3)c3ccccc3nc-2cc1Nc1ccc(Cl)cc1 |  |  |  |  |  |  |  |  |  |  |  |  | 35.3 | 43.6 | 23.3 | 11 | 20.2 | 15.4 | 75.2 |
| Cc1c(N=NN(C)C)cc[n+]([O-])c1C |  |  |  |  |  |  |  |  |  |  |  |  | > 100 | > 100 | > 100 | > 100 | > 100 | > 100 | > 100 |
| Cc1cc2c(C(C)C)c(O)c(O)c(C=Nc3ccccc3)c2c(O)c1-c1c(C)cc2c(C(C)C)c(O)c(O)c(C=Nc3ccccc3)c2c1O |  | > 100 |  |  |  |  |  | > 100 |  |  |  |  | > 100 | > 100 |  | > 100 | > 100 |  |  |
| CC(C)[C@](O)(C(=O)OCC1=CCN2CC[C@@H](O)[C@@H]12)[C@H](C)O |  |  |  |  |  |  |  |  |  |  |  |  | > 375 | > 375 | > 375 | > 375 | > 375 | > 375 | > 375 |
| CCc1c(C)c2ccc(OCC(=O)N=Nc3c(O)[nH]c4ccccc34)c(C)c2oc1=O | 1.2 | > 33.3 |  |  |  |  | > 33.3 | > 33.3 |  |  | 0.817 | 2.1 |  |  |  |  |  |  |  |
